tested on: Staphylococcus aureus; test: Antibacterial activity against methicillin-sensitive Staphylococcus aureus ATCC 29213 after 18 hrs by agar dilution method; format: functional; details: ATCC 29213, 18 h

| SMILES | MIC [µg/mL] |
| --- | --- |
| COc1ccc2c(c[n+]3c4c2cc(Cc2ccccc2)c2c5c(cc(c24)CC3)OCO5)c1OC.[Br-] | 4 |
| COc1ccc2c(c[n+]3c4c2cc(Cc2ccc(F)cc2F)c2c5c(cc(c24)CC3)OCO5)c1OC.[Br-] | 4 |
| C[C@H]1COc2c(N3CCN(C)CC3)c(F)cc3c(=O)c(C(=O)O)cn1c23.C[C@H]1COc2c(N3CCN(C)CC3)c(F)cc3c(=O)c(C(=O)O)cn1c23.O [LEVOFLOXACIN] | 0.125 |
| COc1ccc2c(c[n+]3c4c2ccc2c5c(cc(c24)CC3)OCO5)c1OC.[Br-] | > 64 |
| COc1ccc2c(c[n+]3c4c2cc(Cc2ccc(SC(F)(F)F)cc2)c2c5c(cc(c24)CC3)OCO5)c1OC.[Br-] | > 64 |
| COc1ccc2c(c[n+]3c4c2cc(Cc2ccc(C(C)(C)C)cc2)c2c5c(cc(c24)CC3)OCO5)c1OC.[Br-] | 32 |
| COc1ccc2c(c[n+]3c4c2cc(Cc2ccc(C(C)C)cc2)c2c5c(cc(c24)CC3)OCO5)c1OC.[Br-] | 8 |

tested on: Staphylococcus aureus; test: Antibacterial activity against methicillin-sensitive Staphylococcus aureus 16-1 clinical isolate after 18 hrs by agar dilution method; format: functional; details: 16-1, 18 h

| SMILES | MIC [µg/mL] |
| --- | --- |
| COc1ccc2c(c[n+]3c4c2cc(Cc2ccccc2)c2c5c(cc(c24)CC3)OCO5)c1OC.[Br-] | 4 |
| COc1ccc2c(c[n+]3c4c2cc(Cc2ccc(F)cc2F)c2c5c(cc(c24)CC3)OCO5)c1OC.[Br-] | 2 |
| C[C@H]1COc2c(N3CCN(C)CC3)c(F)cc3c(=O)c(C(=O)O)cn1c23.C[C@H]1COc2c(N3CCN(C)CC3)c(F)cc3c(=O)c(C(=O)O)cn1c23.O [LEVOFLOXACIN] | 0.125 |
| COc1ccc2c(c[n+]3c4c2ccc2c5c(cc(c24)CC3)OCO5)c1OC.[Br-] | > 64 |
| COc1ccc2c(c[n+]3c4c2cc(Cc2ccc(SC(F)(F)F)cc2)c2c5c(cc(c24)CC3)OCO5)c1OC.[Br-] | > 64 |
| COc1ccc2c(c[n+]3c4c2cc(Cc2ccc(C(C)(C)C)cc2)c2c5c(cc(c24)CC3)OCO5)c1OC.[Br-] | 32 |
| COc1ccc2c(c[n+]3c4c2cc(Cc2ccc(C(C)C)cc2)c2c5c(cc(c24)CC3)OCO5)c1OC.[Br-] | 8 |

tested on: Staphylococcus aureus; test: Antibacterial activity against methicillin-resistant Staphylococcus aureus ATCC 33591 after 18 hrs by agar dilution method; format: functional; details: ATCC 33591, 18 h

| SMILES | MIC [µg/mL] |
| --- | --- |
| COc1ccc2c(c[n+]3c4c2cc(Cc2ccccc2)c2c5c(cc(c24)CC3)OCO5)c1OC.[Br-] | 4 |
| COc1ccc2c(c[n+]3c4c2cc(Cc2ccc(F)cc2F)c2c5c(cc(c24)CC3)OCO5)c1OC.[Br-] | 4 |
| C[C@H]1COc2c(N3CCN(C)CC3)c(F)cc3c(=O)c(C(=O)O)cn1c23.C[C@H]1COc2c(N3CCN(C)CC3)c(F)cc3c(=O)c(C(=O)O)cn1c23.O [LEVOFLOXACIN] | 0.125 |
| COc1ccc2c(c[n+]3c4c2ccc2c5c(cc(c24)CC3)OCO5)c1OC.[Br-] | > 64 |
| COc1ccc2c(c[n+]3c4c2cc(Cc2ccc(SC(F)(F)F)cc2)c2c5c(cc(c24)CC3)OCO5)c1OC.[Br-] | > 64 |
| COc1ccc2c(c[n+]3c4c2cc(Cc2ccc(C(C)(C)C)cc2)c2c5c(cc(c24)CC3)OCO5)c1OC.[Br-] | 64 |
| COc1ccc2c(c[n+]3c4c2cc(Cc2ccc(C(C)C)cc2)c2c5c(cc(c24)CC3)OCO5)c1OC.[Br-] | 8 |

tested on: Staphylococcus aureus; test: Antibacterial activity against methicillin-resistant Staphylococcus aureus ATCC 43300 after 18 hrs by agar dilution method; format: functional; details: ATCC 43300, 18 h

| SMILES | MIC [µg/mL] |
| --- | --- |
| COc1ccc2c(c[n+]3c4c2cc(Cc2ccccc2)c2c5c(cc(c24)CC3)OCO5)c1OC.[Br-] | 4 |
| COc1ccc2c(c[n+]3c4c2cc(Cc2ccc(F)cc2F)c2c5c(cc(c24)CC3)OCO5)c1OC.[Br-] | 8 |
| C[C@H]1COc2c(N3CCN(C)CC3)c(F)cc3c(=O)c(C(=O)O)cn1c23.C[C@H]1COc2c(N3CCN(C)CC3)c(F)cc3c(=O)c(C(=O)O)cn1c23.O [LEVOFLOXACIN] | 0.125 |
| COc1ccc2c(c[n+]3c4c2ccc2c5c(cc(c24)CC3)OCO5)c1OC.[Br-] | > 64 |
| COc1ccc2c(c[n+]3c4c2cc(Cc2ccc(SC(F)(F)F)cc2)c2c5c(cc(c24)CC3)OCO5)c1OC.[Br-] | > 64 |
| COc1ccc2c(c[n+]3c4c2cc(Cc2ccc(C(C)(C)C)cc2)c2c5c(cc(c24)CC3)OCO5)c1OC.[Br-] | 64 |
| COc1ccc2c(c[n+]3c4c2cc(Cc2ccc(C(C)C)cc2)c2c5c(cc(c24)CC3)OCO5)c1OC.[Br-] | 32 |

tested on: Staphylococcus aureus; test: Antibacterial activity against methicillin-resistant Staphylococcus aureus ATCC BAA-976 after 18 hrs by agar dilution method; format: functional; details: ATCC BAA-976, 18 h

| SMILES | MIC [µg/mL] |
| --- | --- |
| COc1ccc2c(c[n+]3c4c2cc(Cc2ccccc2)c2c5c(cc(c24)CC3)OCO5)c1OC.[Br-] | 4 |
| COc1ccc2c(c[n+]3c4c2cc(Cc2ccc(F)cc2F)c2c5c(cc(c24)CC3)OCO5)c1OC.[Br-] | 4 |
| C[C@H]1COc2c(N3CCN(C)CC3)c(F)cc3c(=O)c(C(=O)O)cn1c23.C[C@H]1COc2c(N3CCN(C)CC3)c(F)cc3c(=O)c(C(=O)O)cn1c23.O [LEVOFLOXACIN] | 0.125 |
| COc1ccc2c(c[n+]3c4c2ccc2c5c(cc(c24)CC3)OCO5)c1OC.[Br-] | > 64 |
| COc1ccc2c(c[n+]3c4c2cc(Cc2ccc(SC(F)(F)F)cc2)c2c5c(cc(c24)CC3)OCO5)c1OC.[Br-] | > 64 |
| COc1ccc2c(c[n+]3c4c2cc(Cc2ccc(C(C)(C)C)cc2)c2c5c(cc(c24)CC3)OCO5)c1OC.[Br-] | 64 |
| COc1ccc2c(c[n+]3c4c2cc(Cc2ccc(C(C)C)cc2)c2c5c(cc(c24)CC3)OCO5)c1OC.[Br-] | 16 |

tested on: Staphylococcus aureus; test: Antibacterial activity against methicillin-resistant Staphylococcus aureus ATCC BAA-1708 after 18 hrs by agar dilution method; format: functional; details: ATCC BAA-1708, 18 h

| SMILES | MIC [µg/mL] |
| --- | --- |
| COc1ccc2c(c[n+]3c4c2cc(Cc2ccccc2)c2c5c(cc(c24)CC3)OCO5)c1OC.[Br-] | 8 |
| COc1ccc2c(c[n+]3c4c2cc(Cc2ccc(F)cc2F)c2c5c(cc(c24)CC3)OCO5)c1OC.[Br-] | 4 |
| C[C@H]1COc2c(N3CCN(C)CC3)c(F)cc3c(=O)c(C(=O)O)cn1c23.C[C@H]1COc2c(N3CCN(C)CC3)c(F)cc3c(=O)c(C(=O)O)cn1c23.O [LEVOFLOXACIN] | 8 |
| COc1ccc2c(c[n+]3c4c2ccc2c5c(cc(c24)CC3)OCO5)c1OC.[Br-] | > 64 |
| COc1ccc2c(c[n+]3c4c2cc(Cc2ccc(SC(F)(F)F)cc2)c2c5c(cc(c24)CC3)OCO5)c1OC.[Br-] | > 64 |
| COc1ccc2c(c[n+]3c4c2cc(Cc2ccc(C(C)(C)C)cc2)c2c5c(cc(c24)CC3)OCO5)c1OC.[Br-] | 64 |
| COc1ccc2c(c[n+]3c4c2cc(Cc2ccc(C(C)C)cc2)c2c5c(cc(c24)CC3)OCO5)c1OC.[Br-] | 32 |

tested on: Staphylococcus aureus; test: Antibacterial activity against methicillin-resistant Staphylococcus aureus 13-18 clinical isolate after 18 hrs by agar dilution method; format: functional; details: 13-18, 18 h

| SMILES | MIC [µg/mL] |
| --- | --- |
| COc1ccc2c(c[n+]3c4c2cc(Cc2ccccc2)c2c5c(cc(c24)CC3)OCO5)c1OC.[Br-] | 8 |
| COc1ccc2c(c[n+]3c4c2cc(Cc2ccc(F)cc2F)c2c5c(cc(c24)CC3)OCO5)c1OC.[Br-] | 4 |
| C[C@H]1COc2c(N3CCN(C)CC3)c(F)cc3c(=O)c(C(=O)O)cn1c23.C[C@H]1COc2c(N3CCN(C)CC3)c(F)cc3c(=O)c(C(=O)O)cn1c23.O [LEVOFLOXACIN] | 32 |
| COc1ccc2c(c[n+]3c4c2ccc2c5c(cc(c24)CC3)OCO5)c1OC.[Br-] | > 64 |
| COc1ccc2c(c[n+]3c4c2cc(Cc2ccc(SC(F)(F)F)cc2)c2c5c(cc(c24)CC3)OCO5)c1OC.[Br-] | > 64 |
| COc1ccc2c(c[n+]3c4c2cc(Cc2ccc(C(C)(C)C)cc2)c2c5c(cc(c24)CC3)OCO5)c1OC.[Br-] | 64 |
| COc1ccc2c(c[n+]3c4c2cc(Cc2ccc(C(C)C)cc2)c2c5c(cc(c24)CC3)OCO5)c1OC.[Br-] | 32 |

tested on: Staphylococcus aureus; test: Antibacterial activity against methicillin-resistant Staphylococcus aureus 13-23 clinical isolate after 18 hrs by agar dilution method; format: functional; details: 13-23, 18 h

| SMILES | MIC [µg/mL] |
| --- | --- |
| COc1ccc2c(c[n+]3c4c2cc(Cc2ccccc2)c2c5c(cc(c24)CC3)OCO5)c1OC.[Br-] | 4 |
| COc1ccc2c(c[n+]3c4c2cc(Cc2ccc(F)cc2F)c2c5c(cc(c24)CC3)OCO5)c1OC.[Br-] | 4 |
| C[C@H]1COc2c(N3CCN(C)CC3)c(F)cc3c(=O)c(C(=O)O)cn1c23.C[C@H]1COc2c(N3CCN(C)CC3)c(F)cc3c(=O)c(C(=O)O)cn1c23.O [LEVOFLOXACIN] | 32 |
| COc1ccc2c(c[n+]3c4c2ccc2c5c(cc(c24)CC3)OCO5)c1OC.[Br-] | > 64 |
| COc1ccc2c(c[n+]3c4c2cc(Cc2ccc(SC(F)(F)F)cc2)c2c5c(cc(c24)CC3)OCO5)c1OC.[Br-] | > 64 |
| COc1ccc2c(c[n+]3c4c2cc(Cc2ccc(C(C)(C)C)cc2)c2c5c(cc(c24)CC3)OCO5)c1OC.[Br-] | 64 |
| COc1ccc2c(c[n+]3c4c2cc(Cc2ccc(C(C)C)cc2)c2c5c(cc(c24)CC3)OCO5)c1OC.[Br-] | 32 |

tested on: Staphylococcus aureus; test: Antibacterial activity against methicillin-resistant Staphylococcus aureus 16-30 clinical isolate after 18 hrs by agar dilution method; format: functional; details: 16-30, 18 h

| SMILES | MIC [µg/mL] |
| --- | --- |
| COc1ccc2c(c[n+]3c4c2cc(Cc2ccccc2)c2c5c(cc(c24)CC3)OCO5)c1OC.[Br-] | 4 |
| COc1ccc2c(c[n+]3c4c2cc(Cc2ccc(F)cc2F)c2c5c(cc(c24)CC3)OCO5)c1OC.[Br-] | 2 |
| C[C@H]1COc2c(N3CCN(C)CC3)c(F)cc3c(=O)c(C(=O)O)cn1c23.C[C@H]1COc2c(N3CCN(C)CC3)c(F)cc3c(=O)c(C(=O)O)cn1c23.O [LEVOFLOXACIN] | 32 |
| COc1ccc2c(c[n+]3c4c2ccc2c5c(cc(c24)CC3)OCO5)c1OC.[Br-] | > 64 |
| COc1ccc2c(c[n+]3c4c2cc(Cc2ccc(SC(F)(F)F)cc2)c2c5c(cc(c24)CC3)OCO5)c1OC.[Br-] | > 64 |
| COc1ccc2c(c[n+]3c4c2cc(Cc2ccc(C(C)(C)C)cc2)c2c5c(cc(c24)CC3)OCO5)c1OC.[Br-] | 64 |
| COc1ccc2c(c[n+]3c4c2cc(Cc2ccc(C(C)C)cc2)c2c5c(cc(c24)CC3)OCO5)c1OC.[Br-] | 16 |

tested on: Staphylococcus aureus; test: Antibacterial activity against methicillin-resistant Staphylococcus aureus 16-34 clinical isolate after 18 hrs by agar dilution method; format: functional; details: 16-34, 18 h

| SMILES | MIC [µg/mL] |
| --- | --- |
| COc1ccc2c(c[n+]3c4c2cc(Cc2ccccc2)c2c5c(cc(c24)CC3)OCO5)c1OC.[Br-] | 4 |
| COc1ccc2c(c[n+]3c4c2cc(Cc2ccc(F)cc2F)c2c5c(cc(c24)CC3)OCO5)c1OC.[Br-] | 2 |
| C[C@H]1COc2c(N3CCN(C)CC3)c(F)cc3c(=O)c(C(=O)O)cn1c23.C[C@H]1COc2c(N3CCN(C)CC3)c(F)cc3c(=O)c(C(=O)O)cn1c23.O [LEVOFLOXACIN] | 32 |
| COc1ccc2c(c[n+]3c4c2ccc2c5c(cc(c24)CC3)OCO5)c1OC.[Br-] | > 64 |
| COc1ccc2c(c[n+]3c4c2cc(Cc2ccc(SC(F)(F)F)cc2)c2c5c(cc(c24)CC3)OCO5)c1OC.[Br-] | > 64 |
| COc1ccc2c(c[n+]3c4c2cc(Cc2ccc(C(C)(C)C)cc2)c2c5c(cc(c24)CC3)OCO5)c1OC.[Br-] | 64 |
| COc1ccc2c(c[n+]3c4c2cc(Cc2ccc(C(C)C)cc2)c2c5c(cc(c24)CC3)OCO5)c1OC.[Br-] | 16 |

Reference: ChEMBL document CHEMBL4270624, “Synthesis and antibacterial evaluation of 13-substituted cycloberberine derivatives as a novel class of anti-MRSA agents” (Eur J Med Chem, 2018)
